Measurements as given in patent US11726079B2, “Lighting systems and methods of using lighting systems for in vitro potency assay for Photofrin” (Concordia Laboratories, Inc., priority 2012, dated 2023).
Where “and” joins values, the source holds several entries; their conditions need not be identical. Equal values may be shown once. Marks after values point to notes of the source that are not given here.

System: A549 human lung carcinoma cells
Assay: In vitro potency assay for Photofrin®: A549 cells, 4 h drug absorption, wash, 10 min irradiation at 400-650 nm, 24 h, XTT viability, 4PL EC50
Format: cell-based
Set-up: key to EC50-XTT / EC50 STD / EC50 Test: EC50 as Photofrin concentration in μg/mL (4PL inflection point)
Settings: for EC50 STD / EC50 Test: in µg/mL; for EC50 Test / EC50 Test, Mean: Test (35 μg/mL high test drug concentration)
Procedure: Cell passaging of A549 cells is performed using fixed seeding densities to reduce assay variation resulting from cell culture conditions. […] Working in very low light conditions, Photofrin® is reconstituted in normal saline to 2.5 mg/mL and diluted further in culture medium at twice the desired final assay concentration, typically 140 μg/mL. A series of two-fold dilutions were then prepared from the 140 μg/mL solution and the diluted drug was added to the cells at 1:1 (v/v) according to the diagram shown in FIG. 11.
[…] The plate is then removed from the incubator, the drug is aspirated, the wells are washed with Dulbecco's phosphate buffered saline (DPBS) and fresh, pre-warmed medium is added to the wells. […] […] The wells covered with foil strips are important controls for the activity of Photofrin® in the absence of irradiation and the effect of light on the cells in the absence of drug.
The optical absorbance of the wells in column 1 (high drug concentration, no cells) is evaluated for absorption at 450 nm to ensure that the drug is not interfering with the XTT assay. The percent viability of each of the wells in columns 2-9 and 11 is calculated relative to the mean value of column 10 (cell control, no drug, no light). For each dose response obtained, a four parameter logistic (4PL) nonlinear regression analysis is performed of the percent viability versus the log-Photofrin® concentration. The point of inflection of the regression curve (C value) is defined as the EC50 and used in the calculation of relative potency. Curve fitting and calculation of the EC50 is performed with Softmax v5.4.2 (Molecular Devices, Inc.) or Prism v.5.04 (GraphPad, Software Inc.) software. The mean percent viability of columns 9 and 11 is also calculated.
• 1. Materials and Reagents • 1.1. A549 Human Lung Carcinoma (ATCC—Cat. No.: CCL-185) • 1.2. 25 cm^2 Flasks (Corning—Cat. No.: 431463, or equivalent) • 1.3. 75 cm^2 Flasks (Corning—Cat. No.: 431464, or equivalent) • 1.4. 50 mL tubes (Fisher Scientific—Cat. No. 17-512F, or equivalent) • 1.5. Hemacytometer • 1.6. RPMI-1640 (+) phenol red (Lonza—Cat. No.: 12-167F, or equivalent) • 1.7. HI-FBS (Gibco—Life Technologies—Cat No.: 10082-147, or equivalent) • 1.8. 200 mM L-Glutamine (Lonza—Cat. No.: 17-605E, or equivalent) • 1.9. 0.25% Trypsin-EDTA (Gibco—Cat. No.: 25200-056, or equivalent) • 2. Instruments • 2.1. Forma Scientific centrifuge with swinging bucket rotor (Model 5682, or equivalent) • 2.2. Water bath set at 37° C. • 2.3. […] Prepared Reagents • 3.1. RPMI-1640 Complete Media • 3.1.1. 500 mL bottle of RPMI-1640 basal media containing phenol red • 3.1.2. Add 50 mL HI-FBS • 3.1.3. Add 5.5 mL of 200 mM L-Glutamine • 4. Procedure • 4.1. Remove one vial of A549 lung carcinoma cells from liquid nitrogen storage and after ensuring that the vial is tightly closed, rapidly thaw vial by holding all but the top of the vial submerged in a 37° C. water bath until the vial contents begins to thaw but while ice still remains. • 4.2. Liberally spray the vial with 70% ethanol, wipe with tissue, and place into a laminar flow hood. • 4.3. Transfer the contents of the vial to a 50 mL conical tube containing 9 mL RPMI-1640 complete medium containing phenol red (Step 3.1) (hereafter referred to as complete medium in this method). • 4.4. Centrifuge the tube in a swing bucket rotor set at 1200 RPM (220 RCF) for five minutes at room temperature. • 4.5. Discard supernatant and gently flick the tube to resuspend the cells in the residual volume left in the tube. • 4.6. Add 5 mL complete medium, transfer the cell solution to a 25 cm^2 flask, and then place the flask into a 37° C. incubator with 5% CO2. • 4.7. Monitor the flask daily and when the cells reach approximately 80% confluence, remove the media, and wash the cells by adding 2 mL DPBS to the flask. Ensure that all cells are rinsed and discard the DPBS. • 4.8. Add 1 mL 0.25% trypsin-EDTA to prewash the cells, tip flask to coat all cells, and discard the trypsin. • 4.9. […]

ratio of the standard to test sample EC50 (FIG. 12, standard preparation versus preparation containing half of the nominal activity): 0.5
EC50 STD (Standard sample (70 μg/mL high test drug concentration), A549 cells at passage P10): 10.5
EC50 STD (Standard sample (70 μg/mL high test drug concentration), A549 cells at passage P17): 10.1
EC50 STD (Standard sample (70 μg/mL high test drug concentration), Inter-operator Assay, AB-1): 6.37
EC50 STD (Standard sample (70 μg/mL high test drug concentration), Inter-operator Assay, AB-2): 8.23
EC50 STD, Mean (Standard sample (70 μg/mL high test drug concentration), Inter-operator Assay, mean of operator AB plates): 7.3 µg/mL
EC50 STD (Standard sample (70 μg/mL high test drug concentration), Photofrin® absorption time 3.5 hours): 10.4
EC50 STD (Standard sample (70 μg/mL high test drug concentration), absorption time 4.0 hours): 10.2
EC50 STD (Standard sample (70 μg/mL high test drug concentration), absorption time 4.5 hours): 9.23
EC50 STD (Standard sample (70 μg/mL high test drug concentration), irradiation time 8 minutes): 12.0
EC50 STD (Standard sample (70 μg/mL high test drug concentration), irradiation time 9 minutes): 12.0
EC50 STD (Standard sample (70 μg/mL high test drug concentration), irradiation time 10 minutes): 11.1
EC50 STD (Standard sample (70 μg/mL high test drug concentration), irradiation time 11 minutes): 11.6
EC50 STD (Standard sample (70 μg/mL high test drug concentration), irradiation time 12 minutes): 10.8
EC50 STD (Standard sample (70 μg/mL high test drug concentration), operator AB Pilot Assay-1): 6.62
EC50 STD (Standard sample (70 μg/mL high test drug concentration), operator AB Pilot Assay-2): 6.76
EC50 STD (Standard sample (70 μg/mL high test drug concentration), post-irradiation incubation time 22 hours): 9.16
EC50 STD (Standard sample (70 μg/mL high test drug concentration), post-irradiation incubation time 24 hours): 10.2
EC50 STD (Standard sample (70 μg/mL high test drug concentration), post-irradiation incubation time 26 hours): 9.55
EC50 STD (Standard sample (70 μg/mL high test drug concentration), post-irradiation temperature 35° C.): 9.68
EC50 STD (Standard sample (70 μg/mL high test drug concentration), post-irradiation temperature 37° C. (nominal, two experiments)): 10.8 and 9.9
EC50 STD (Standard sample (70 μg/mL high test drug concentration), post-irradiation temperature 39° C.): 8.32
Standard Sample EC50 (Standard sample, 70 μg/mL high test concentration, Plate 1 (placement Standard, Test; left to right dilution; controls in columns 9-11)): 11.1 µg/mL
Standard Sample EC50 (Standard sample, 70 μg/mL high test concentration, Plate 2 (placement Test, Standard; left to right dilution; controls in columns 9-11)): 10.7 µg/mL
Standard Sample EC50 (Standard sample, 70 μg/mL high test concentration, Plate 3 (right to left dilution; controls in columns 9-11)): 11.2 µg/mL
Standard Sample EC50 (Standard sample, 70 μg/mL high test concentration, Plate 4 (placement Standard, Test; left to right dilution; controls in columns 9-11)): 11 µg/mL
Standard Sample EC50 (Standard sample, 70 μg/mL high test concentration, Plate 5 (left to right dilution; controls in columns 2-4)): 10.8 µg/mL
Standard Sample EC50, Mean (Standard sample, 70 μg/mL high test concentration, mean across Plates 1-5 of positional analysis): 11 µg/mL
EC50 Test (A549 cells at passage P10, wide confidence interval due to poor curve fitting): 18.9**
EC50 Test (A549 cells at passage P17): 19.2
EC50 Test (Inter-operator Assay, AB-1): 13.7
EC50 Test (Inter-operator Assay, AB-2): 14.6
EC50 Test, Mean (Inter-operator Assay, mean of operator AB plates): 14.2 µg/mL
EC50 Test, Mean (Inter-operator Assay, mean of operator KP plates): 20 µg/mL
EC50 Test (Inter-operator Assay, operator KP, both plates KP-1): 20.1 and 19.8
EC50 Test (absorption time 3.5 hours): 19.5
EC50 Test (absorption time 4.0 hours): 20.1
EC50 Test (absorption time 4.5 hours): 16.1
EC50 Test (irradiation time 8 minutes): 24.5
EC50 Test (irradiation time 9 minutes): 25.2
EC50 Test (irradiation time 10 minutes): 22.8
EC50 Test (irradiation time 11 minutes): 20.9
EC50 Test (irradiation time 12 minutes): 21.0
EC50 Test (operator AB Pilot Assay-1): 16.1
EC50 Test (operator AB Pilot Assay-2): 12.6
EC50 Test (post-irradiation incubation time 22 hours): 16.7
EC50 Test (post-irradiation incubation time 24 hours): 18.9
EC50 Test (post-irradiation incubation time 26 hours): 16.6
EC50 Test (post-irradiation temperature 35° C.): 21.6
EC50 Test (post-irradiation temperature 37° C. (nominal, two experiments)): 19.9 and 20.0
EC50 Test (post-irradiation temperature 39° C.): 16.1
Substance: porfimer sodium [Photofrin®]
EC50 Test (seeding density 0.8 × 10^4 cells/well): 21.1
EC50 Test (seeding density 1.2 × 10^4 cells/well): 27.9
EC50 Test (seeding density 1.9 × 10^4 cells/well): 21.3
